Experimental data as given in patent publication US20120190613A1, “ECHINOCANDIN DERIVATIVES” (priority 2009, published 2012).
In brackets after ≈: the same amount, converted by molar mass. Starred links: 1 amine or outer side, 2 acyl side, 3 side chain; linkers in the order of their positions; H or OH if unused. Positions of bridges follow the written chain, without caps; N, C: chain ends. Non-standard residues stand in square brackets, D forms with d. Residues, ends and D or L forms follow the SMILES beside them. *: point of attachment. Orn(4R-OH,5R-OH) = O=C([C@H](C[C@@H](O)[C@@H](O)N[*:3])N[*:1])[*:2]; Tetradecanoyl(10R,12S-Me2) = CC[C@H](C)C[C@H](C)CCCCCCCCC(=O)*; hTyr(3S-OH,4S-OH) = N[C@H](C(=O)O)[C@H](O)[C@@H](O)c1ccc(O)cc1; Gln(3R-OH) = NC(=O)C[C@@H](O)[C@H](N)C(=O)O; Pro(3S-OH) = O=C(O)[C@H]1NCC[C@@H]1O; Hyp = O=C(O)[C@@H]1C[C@@H](O)CN1

Key:
[1] = test system: A. flavus 626 ATCC 64025; assay: MIC by broth microdilution against A. flavus; format: cell-based; details: 48 hr, growth reduction of 50%
Experimental: (§1) MIC values (μg/mL) of echinocandin class compounds of the invention against various Candida and Aspergillus species were obtained as follows. Test organisms were obtained from the American Type Culture Collection (Manassas, Va.). The isolates were maintained at −80 ° C., then thawed and sub-cultured one day prior to testing (seven days for Aspergillus strains).
(§2) The mouse serum was heat-inactivated for 30 minutes at 56° C., and filtered through a 0.2 μm low protein binding filter unit prior to use.
(§3) MIC values were determined using broth microdilution. The wells of the daughter plates ultimately contained 180 μL of RPMI-1640 medium with and without mouse serum, 10 μL of drug solution, and 10 μL of yeast or fungal inoculum.
(§4) Prior to susceptibility testing, fungal isolates were removed from frozen storage, thawed at room temperature, and subcultured to Potato Dextrose Agar. The Candida strains were incubated overnight at 35° C. and the Aspergillus strains for 7 days at 25° C. Yeast colonies were inoculated into sterile saline and adjusted to the turbidity of a 0.5 McFarland standard. Inoculums from Aspergillus strains were prepared by washing the surface of an agar slant with 1 mL of sterile saline containing 0.05% of Tween 20. The resulting colloidial suspensions were adjusted to an optical density of 0.09 to 0.11 at λ 625 nm.
(§5) Both the yeast and filamentous fungus suspensions were further diluted 1:100 in RPMI-1640 medium and dispensed into sterile reservoirs and used to inoculate the daughter plates. 10 μL of standardized inoculum was delivered into each well. This yielded a final cell concentration in the daughter plates of approximately 2.5×10^3 colony-forming units/mL. Plates were incubated at 35° C. for approximately 48 hr.
(§6) Following incubation, microplates were viewed from the bottom using a plate viewer.

[2] = test system: C. parapsilosis 630 ATCC 90018; assay: MIC by broth microdilution against C. parapsilosis; format: cell-based; details: 48 hr
Experimental: as §1, §2, §3, §4, §5, §6

[3] = test system: C. albicans R303; assay: Mouse candidiasis infection model, C. albicans density in kidneys; format: in vivo, female CD-1 mice; details: First run, kidneys at 24 hr; for Mean log10 CFU/kidneys (±SD): neutropenic mice
Experimental: The objective of these studies was to evaluate the efficacy of test compounds in the mouse candidiasis infection model.
The strain, C. albicans R303 was transferred from frozen storage onto Sabauroud dextrose agar (SDA) plates and grown for ˜24 hr at 35° C. The inoculum was prepared by transferring colonies from the plate to phosphate buffered saline (PBS) and the concentration adjusted to 10^6 CFU/mL with the aid of a spectrophotometer. The stock was diluted 1:9 to prepare the inoculum. Prior to each run the concentration was verified using the dilution plate count method.
The female CD-1 mice used in this study were obtained from Charles River Laboratories, Portage, MI. The animals were approximately seven-weeks-old at the start of the study and weighed about 16-26 g.
In one approach, mice were made neutropenic with IP injections of cyclophosphamide (150 mg/kg in 10 mL/kg) at 4 and 1 day before inoculation. Each animal was inoculated with the appropriate concentration by injecting 0.1 mL of inoculum into a tail vein. The test compounds were administered IP at 2 hr after infection.
The kidneys were collected from four mice in control group 1 (untreated) at 2 hr after infection, and from the remaining mice in the study at 24 hr after infection. Kidneys were removed aseptically from each mouse and were combined in a sterile tube. An aliquot (2 mL) of sterile PBS was added to each tube and the contents homogenized with a tissue homogenizer (Polytron 3100). Serial dilutions of the tissue homogenates were conducted and 0.1 mL aliquots were spread on SDA plates and the plates incubated at 35° C. overnight. The CFU/kidneys were determined from colony counts. Data were analyzed using one-way ANOVA with the Tukey-Kramer Multiple Comparisons Test (GraphPad InStat version 3.06, GraphPad Software, San Diego, Calif.).
Treatments were administered at 2 hr after infection with 2.1×10^5 CFU/mL of the organism. Data are the means of four mice.
Treatments were administered at 2 hr after infection with 6.4×10^5 CFU/mL of the organism. Data are the means of four mice.
Treatments were administered at 2 hr after infection with 3.8×10^5 CFU/mL of the organism. Data are the means of four mice.
Treatments were administered at 2 hr after infection with 3.8×10^5 CFU/rnL of the organism. Data are the means of four mice.

[4] = test system: C. albicans 104 ATCC 90028; assay: MIC by broth microdilution against C. albicans; format: cell-based; details: 48 hr
Experimental: as §1, §2, §3, §4, §5, §6

[5] = 1 mg/kg IP 2 hr after infection
[6] = 5 mg/kg IP 2 hr after infection

| SMILES | MIC ([1]; 50% mouse serum) [µg/mL] | MIC ([2]; 0% mouse serum) [µg/mL] | MIC ([2]; 50% mouse serum) [µg/mL] | Difference from 24-hr control [3, 5] [ns log10 CFU/kidneys] | Mean log10 CFU/kidneys (±SD) [3, 5] [log10 CFU/kidneys] | Difference from 24-hr control [3, 6] [ns log10 CFU/kidneys] | Mean log10 CFU/kidneys (±SD) [3, 6] [log10 CFU/kidneys] | MIC ([4]; 0% mouse serum) [µg/mL] | MIC ([4]; 50% mouse serum) [µg/mL] | MIC ([1]; 0% mouse serum) [µg/mL] |
| --- | --- | --- | --- | --- | --- | --- | --- | --- | --- | --- |
| CCC(C)CC(C)CCCCCCCCC(=O)NC1CC(O)C(NCCNC(=O)OCCOC)NC(=O)C2C(O)CCN2C(=O)C(C(O)CCNC(=O)OCCOC)NC(=O)C(C(O)C(O)c2ccc(O)cc2)NC(=O)C2CC(O)CN2C(=O)C(C(C)O)NC1=O (stereo not drawn) [Compound 2] | 4 (≈ 3.08 µM) | 16 (≈ 12.3 µM) | >16 | 0.33 | 5.10 ± 0.28 | 0.37 | 5.14 ± 0.25 | 4 (≈ 3.08 µM) | >16 | – |
| CCC(C)CC(C)CCCCCCCCC(=O)NC1CC(O)C(NCCNC(=O)CCCCCCCOCCOCCOCCOCCOCCOCCOCCOC)NC(=O)C2C(O)CCN2C(=O)C(C(O)CCNC(=O)CCCCCCCOCCOCCOCCOCCOCCOCCOCCOC)NC(=O)C(C(O)C(O)c2ccc(O)cc2)NC(=O)C2CC(O)CN2C(=O)C(C(C)O)NC1=O (stereo not drawn) [Compound 4] | – | >16 | >16 | 0.48 | 5.25 ± 0.09 | 0.60 | 5.37 ± 0.11 | 8 (≈ 3.96 µM) | >16 | 16 (≈ 7.91 µM) |
| CCC(C)CC(C)CCCCCCCCC(=O)NC1CC(O)C(OCCCCCCOCCOCCOCCOCCOCCOCCOCCOC)NC(=O)C2C(O)CCN2C(=O)C(C(O)CC(N)=O)NC(=O)C(C(O)C(O)c2ccc(O)cc2)NC(=O)C2CC(O)CN2C(=O)C(C(C)O)NC1=O (stereo not drawn) [Compound 10] | 16 (≈ 10.8 µM) | >16 | >16 | – | – | – | – | >16 | >16 | 4 (≈ 2.69 µM) |
| CC[C@H](C)C[C@H](C)CCCCCCCCC(=O)N[C@H]1C[C@@H](O)[C@@H](O)NC(=O)[C@@H]2[C@@H](O)CCN2C(=O)[C@H]([C@H](O)CC(N)=O)NC(=O)[C@H]([C@H](O)[C@@H](O)c2ccc(O)cc2)NC(=O)[C@@H]2C[C@@H](O)CN2C(=O)[C@H]([C@@H](C)O)NC1=O [Pneumocandin B0, pneumocandin B0, reference compound] ({Tetradecanoyl(10R,12S-Me2)}-[Orn(4R-OH,5R-OH)]T[Hyp][hTyr(3S-OH,4S-OH)][Gln(3R-OH)][Pro(3S-OH)]; lactam 1-C) | 0.25 (≈ 0.235 µM) | 8 (≈ 7.51 µM) | >16 | – | – | – | – | 0.25 (≈ 0.235 µM) | 4 (≈ 3.76 µM) | 1 (≈ 0.939 µM) |
